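These data come from cells grown in 96-well plates and exposed to compound for 48 hours at five concentrations. GI50 is the concentration that inhibits growth by half.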 The source made the active and inactive calls. Rule as the data show it: active = GI50 up to about 1.1 µM and inactive = higher.
Tests used:
Assay in all cases: NCI tumour cell line growth inhibition, 48 h
HCT-15 = test system: HCT-15
U-251 = test system: U-251
UO-31 = test system: UO-31
MOLT-4 = test system: MOLT-4
T47D = test system: T47D
SK-MEL-5 = test system: SK-MEL-5
HT-29 = test system: HT-29
MDA-MB-435 = test system: MDA-MB-435
COLO 205 = test system: COLO 205
HOP-92 = test system: HOP-92
SR = test system: SR
NCI-H522 = test system: NCI-H522
DLD-1 = test system: DLD-1
OVCAR-3 = test system: OVCAR-3
NCI-H23 = test system: NCI-H23
RXF 393 = test system: RXF 393
MCF7 = test system: MCF7
CCRF-CEM = test system: CCRF-CEM
PC-3 = test system: PC-3
IGROV-1 = test system: IGROV-1

| SMILES | GI50 (HCT-15) [µM] | GI50 (U-251) | GI50 (UO-31) | GI50 (MOLT-4) | GI50 (T47D) | GI50 (SK-MEL-5) | GI50 (HT-29) | GI50 (MDA-MB-435) | GI50 (COLO 205) | GI50 (HOP-92) | GI50 (SR) | GI50 (NCI-H522) | GI50 (DLD-1) | GI50 (OVCAR-3) | GI50 (NCI-H23) | GI50 (RXF 393) | GI50 (MCF7) | GI50 (CCRF-CEM) | GI50 (PC-3) | GI50 (IGROV-1) |
| --- | --- | --- | --- | --- | --- | --- | --- | --- | --- | --- | --- | --- | --- | --- | --- | --- | --- | --- | --- | --- |
| COC(=O)NC1C(C)OC(OC2C/C=C(/C)C3C=CC4C(OC5CC(OC6CC(O)C(OC7CC(O)C(OC)C(C)O7)C(C)O6)C(O)C(C)O5)C(C)CC(C)C4C3(C)C(=O)C3=C(O)C4(CC(C)C(CO)=CC4/C=C\2C)OC3=O)CC1(C)[N+](=O)[O-] (centres undefined) | 18 | 10.9 µM (inactive) | 17.1 µM (inactive) | 3.72 µM (inactive) | 11.5 µM (inactive) | 15.6 µM (inactive) | 15.7 µM (inactive) | 8.75 µM (inactive) | 5.16 µM (inactive) | 5.45 µM (inactive) | 14.8 µM (inactive) | 5.69 µM (inactive) | 12.7 µM (inactive) | 6.84 µM (inactive) | 11.9 µM (inactive) | 12.3 µM (inactive) | 2.71 µM (inactive) | 2.79 µM (inactive) | 15.9 µM (inactive) | 8.93 µM (inactive) |
| CCCCCCN(N)C(=O)CC#N | > 100 | 74.5 µM (inactive) | > 100 µM (inactive) | 35.5 µM (inactive) |  | 70.6 µM (inactive) | > 100 µM (inactive) |  | 96.2 µM (inactive) | 53 µM (inactive) |  | 23.9 µM (inactive) | 87.3 µM (inactive) | 79.1 µM (inactive) | 65.6 µM (inactive) | 16.9 µM (inactive) |  | > 100 µM (inactive) |  | > 100 µM (inactive) |
| C[N+](C)(C)CC(=O)N/N=C(/Cc1nc2ccc([N+](=O)[O-])cc2nc1O)C(=O)Nc1cc(C(F)(F)F)ccc1Cl |  |  | 40.8 µM (inactive) | > 100 µM (inactive) |  | > 100 µM (inactive) | > 100 µM (inactive) |  | > 100 µM (inactive) | 62.1 µM (inactive) | > 100 µM (inactive) | 28.4 µM (inactive) | > 100 µM (inactive) | > 100 µM (inactive) | > 100 µM (inactive) | > 100 µM (inactive) |  | 66.7 µM (inactive) |  | > 100 µM (inactive) |
| CO[C@H](c1ccccc1)[C@H](C)N(C)c1ccc2ccccc2c1C1=NC(C)(C)CO1 | 14.6 | 16 µM (inactive) | 13.7 µM (inactive) | 9.02 µM (inactive) |  | 88.3 µM (inactive) | 10.7 µM (inactive) |  | 13.8 µM (inactive) | 15.7 µM (inactive) | 13.3 µM (inactive) | 4.21 µM (inactive) | 13 µM (inactive) | 15.9 µM (inactive) | 14.8 µM (inactive) | 13.8 µM (inactive) |  | 15.4 µM (inactive) |  | 33.1 µM (inactive) |
| O=C1OC(=O)C([Se]c2ccccc2)=C1[Se]c1ccccc1 | > 100 | > 100 µM (inactive) |  | > 100 µM (inactive) |  | > 100 µM (inactive) | 44.9 µM (inactive) |  | > 100 µM (inactive) | 70.1 µM (inactive) | > 100 µM (inactive) | > 100 µM (inactive) | > 100 µM (inactive) | > 100 µM (inactive) | 32.4 µM (inactive) | > 100 µM (inactive) |  | > 100 µM (inactive) |  | > 100 µM (inactive) |
| C/C(=N/N)c1ccc2[nH]c3c(C)cc([N+](=O)[O-])c(C)c3c2c1 | 9.55 |  | 10.5 µM (inactive) | 2.79 µM (inactive) |  | 5 µM (inactive) | 8.2 µM (inactive) |  | 11.5 µM (inactive) |  | 5.83 µM (inactive) | 8.51 µM (inactive) | 3.18 µM (inactive) | 14.9 µM (inactive) |  |  |  | 3.13 µM (inactive) |  |  |
| Cc1cc(Cl)ccc1NC(=O)/C(=N\NC(C)(C)C)C(C#N)c1nc(-c2ccc([N+](=O)[O-])cc2)cs1 (centres undefined) | > 100 | > 100 µM (inactive) | > 100 µM (inactive) | 5.79 µM (inactive) |  | > 100 µM (inactive) | > 100 µM (inactive) |  |  | > 100 µM (inactive) | > 100 µM (inactive) | > 100 µM (inactive) | > 100 µM (inactive) | > 100 µM (inactive) | > 100 µM (inactive) |  |  | > 100 µM (inactive) |  | > 100 µM (inactive) |
| CC1=C(C(=O)Nc2cc(=O)n(C)c(=O)n2C)C(c2cccc([N+](=O)[O-])c2)C(C(=O)Nc2cc(=O)n(C)c(=O)n2C)=C(C)N1 |  | > 100 µM (inactive) | 56.1 µM (inactive) | 42.6 µM (inactive) |  | 74.6 µM (inactive) | > 100 µM (inactive) |  | > 100 µM (inactive) | 58.7 µM (inactive) |  | 44.5 µM (inactive) | > 100 µM (inactive) | > 100 µM (inactive) | > 100 µM (inactive) | > 100 µM (inactive) |  | > 100 µM (inactive) |  | > 100 µM (inactive) |
| CC1(O)C(C)(O)C2(C)O[Te]3(OC12C)OC1(C)C(C)(O)C(C)(O)C1(C)O3 (centres undefined) | 11.5 | 10.8 µM (inactive) | 27.5 µM (inactive) | 11.8 µM (inactive) |  | 15 µM (inactive) | 27.3 µM (inactive) |  | > 100 µM (inactive) | 31 µM (inactive) | 17.2 µM (inactive) | 17.8 µM (inactive) | 33 µM (inactive) | 20.2 µM (inactive) | 14.8 µM (inactive) | 12.4 µM (inactive) |  | 2.41 µM (inactive) |  | 12.3 µM (inactive) |
| Oc1ccccc1/C=C/c1csnn1 | > 51.4 | > 100 µM (inactive) | > 100 µM (inactive) | > 100 µM (inactive) |  | > 100 µM (inactive) | > 100 µM (inactive) |  | > 100 µM (inactive) | > 100 µM (inactive) | > 46.2 µM (inactive) | > 100 µM (inactive) | > 100 µM (inactive) | > 100 µM (inactive) | > 100 µM (inactive) | > 100 µM (inactive) |  | > 100 µM (inactive) |  | > 100 µM (inactive) |
| CCOC(=O)c1cnc2cc3cccccc3n2c1=O | > 100 | > 100 µM (inactive) | > 100 µM (inactive) | > 100 µM (inactive) |  |  | > 100 µM (inactive) |  | > 100 µM (inactive) |  | 45 µM (inactive) |  | > 100 µM (inactive) | > 100 µM (inactive) | > 100 µM (inactive) | > 100 µM (inactive) |  | > 100 µM (inactive) |  | > 100 µM (inactive) |
| O=NN(CCCl)C(=O)N[C@H]1CC[C@H](CC(=O)O)CC1 | > 100 | 33.2 µM (inactive) | > 100 µM (inactive) | 11.9 µM (inactive) |  | > 100 µM (inactive) | > 100 µM (inactive) |  | > 100 µM (inactive) | > 100 µM (inactive) | 32.2 µM (inactive) | 28 µM (inactive) | > 100 µM (inactive) | > 100 µM (inactive) | > 89.1 µM (inactive) | > 100 µM (inactive) | > 100 µM (inactive) | 21.1 µM (inactive) |  | > 100 µM (inactive) |
| O=C(CC1(O)C(=O)Nc2c(Cl)cc(Cl)cc21)c1cccc([N+](=O)[O-])c1 (centres undefined) | 48.5 | 27.7 µM (inactive) | 38.6 µM (inactive) | 19.8 µM (inactive) | 63.5 µM (inactive) | 17.2 µM (inactive) | 28.9 µM (inactive) | 5.12 µM (inactive) | 33.3 µM (inactive) | 23.2 µM (inactive) | 51.9 µM (inactive) | 67 µM (inactive) | 43.2 µM (inactive) | 25 µM (inactive) | 19.4 µM (inactive) | 28.6 µM (inactive) | 11.9 µM (inactive) | 17.4 µM (inactive) | 32.1 µM (inactive) | 18.2 µM (inactive) |
| COCNC(=NC#N)NCOC | > 42.9 | > 58.5 µM (inactive) | > 100 µM (inactive) | > 100 µM (inactive) |  | > 100 µM (inactive) | > 100 µM (inactive) |  | > 53.5 µM (inactive) | > 100 µM (inactive) | 20.2 µM (inactive) | > 100 µM (inactive) | > 62.8 µM (inactive) | > 100 µM (inactive) | > 100 µM (inactive) | > 42 µM (inactive) |  | > 100 µM (inactive) |  | > 100 µM (inactive) |
| Cn1ccnc1CCc1c(Cl)cccc1Cl | > 100 | > 100 µM (inactive) | 71.3 µM (inactive) | > 100 µM (inactive) |  | > 100 µM (inactive) | > 100 µM (inactive) |  | > 100 µM (inactive) | 52.1 µM (inactive) | > 100 µM (inactive) | > 100 µM (inactive) | > 100 µM (inactive) | > 100 µM (inactive) | > 100 µM (inactive) | > 100 µM (inactive) |  | > 100 µM (inactive) |  | > 100 µM (inactive) |
| Cc1cc(Cl)cc2c1NC(=O)C2(O)CC(=O)c1ccc(Br)cc1 (centres undefined) | 57 | 79.4 µM (inactive) | > 100 µM (inactive) | 20.5 µM (inactive) |  | 25 µM (inactive) | 49.9 µM (inactive) |  | > 100 µM (inactive) | 94.4 µM (inactive) |  | 45.7 µM (inactive) | 50.8 µM (inactive) | 63 µM (inactive) | 43.4 µM (inactive) | 21.8 µM (inactive) |  | 18.6 µM (inactive) |  | 66.8 µM (inactive) |
| CCOC(=O)c1c[nH]c2c(ccc3nn(C)nc32)c1=O | 41 | 25.8 µM (inactive) | > 100 µM (inactive) | > 100 µM (inactive) |  | > 100 µM (inactive) | > 100 µM (inactive) |  | 38.3 µM (inactive) | > 100 µM (inactive) | 84.1 µM (inactive) | > 100 µM (inactive) | 50.4 µM (inactive) | > 100 µM (inactive) | > 100 µM (inactive) | 30.4 µM (inactive) |  | 34 µM (inactive) |  | > 100 µM (inactive) |
| Cc1c(Cl)c2ccccc2n1S(=O)(=O)c1ccccc1 | 37.3 | 88.9 µM (inactive) | 26.1 µM (inactive) | 37.4 µM (inactive) |  | 32.4 µM (inactive) | 46 µM (inactive) |  | > 100 µM (inactive) | 15.7 µM (inactive) | 32.1 µM (inactive) | 19.6 µM (inactive) | 71.6 µM (inactive) | 45 µM (inactive) | 41.1 µM (inactive) |  |  | 48.5 µM (inactive) |  | > 100 µM (inactive) |
